Results on eight compounds are retold here after patent US5053395A, “Pradimicin amide derivatives” (Bristol-Myers Company, priority 1989, dated 1991).

As a reminder, the MIC is the lowest concentration that inhibits growth of the organism. A lower MIC goes with a more susceptible organism.

In one experiment the test system is T. mentagrophytes. Briefly: In vitro antifungal activity, MIC by serial agar dilution method (T. mentagrophytes). Format: cell-based. To be noted: Sabouraud dextrose agar, 44 hours at 28° C.; for MIC: Trichophyton mentagrophytes. How it is done:
(§1) Antifungal activities of representative compounds of the present invention were evaluated both in vitro and in vivo. The minimum inhibitory concentrations (MICs) against various fungi were determined by serial agar dilution method using Sabouraud dextrose agar. Thus, approximately 0.003 ml of fungal suspension containing 10^6 cells/ml was applied to the surface of agar plates containing the test antibiotics. The MIC values recorded after the cultures had been incubated for 44 hours at 28° C. are set forth below in Table I.
In general terms: In agar dilution the substance is mixed into plates at graded concentrations.

Another experiment concerns C. albicans. In words: In vitro antifungal activity, MIC by serial agar dilution method (C. albicans). Format: cell-based. To be noted: Sabouraud dextrose agar, 44 hours at 28° C.; for MIC: Candida albicans. The method, then:
as §1

For another experiment, the system named is A. fumigatus. Briefly: In vitro antifungal activity, MIC by serial agar dilution method (A. fumigatus). To be noted: Sabouraud dextrose agar, 44 hours at 28° C.; for MIC: Aspergillus fumigatus. It is filed as cell-based. The method, then: as §1
The test system of another experiment is C. neoformans. Briefly: In vitro antifungal activity, MIC by serial agar dilution method (C. neoformans). It is filed as cell-based. To be noted: Sabouraud dextrose agar, 44 hours at 28° C.; for MIC: Cryptococcus neoformans. How it is done:
as §1

A further experiment concerns Candida albicans A9540. Briefly: In vivo activity against Candida albicans A9540 infection in mice. To be noted: A9540, 480 h, male ICR mice, intravenous just after i.v. infection, survival on 20th day, read-out: PD50 (dose that protects 50% of the animals from infection). The method, then:
In vivo activity of compounds of the present invention was tested against Candida albicans A9540 infection in mice. Test organisms were cultured for 18 hours at 28° C. in YGP medium (yeast extract, glucose, peptone, K2 HPO4, MgSO4) and then suspended in saline. Male ICR mice weighing 20 to 24 g were infected intravenously with about 10 times the median lethal dose of the test fungus. The antibiotic at various dose levels was administered to groups of 5 mice each intravenously just after the fungal infection. The dose that protects 50% of the animals from infection (PD50, mg/kg) was calculated from survival rates recorded on the 20th day after the fungal challenge. All control animals died within 7 to 15 days after infection. The PD50 for compounds of Examples 2, 4, and 5 are 18 mg/kg, 11 mg/kg and 8.8 mg/kg, respectively.

Experiment [1] has as its system calcium ion and calmodulin-dependent cyclic nucleotide phosphodiesterase. To be noted: cited from earlier work.

Values after ≈ are worked out from the molar mass of the structure shown.

In the case of Pradimicin A Butylamide [Example 6], in the experiment on T. mentagrophytes, the “MIC T. mentagrophytes” value worked out at 100 mg/L. Also, the “MIC C. albicans” value in the experiment with C. albicans stood at 100 mg/L. The “MIC A. fumigatus” value in the experiment on A. fumigatus came to 50 mg/L. Further, the “MIC C. neoformans” value against C. neoformans was 3.1 mg/L.
On to `CNC(=O)[C@@H](C)NC(=O)c1c(C)cc2c(c1O)-c1c(cc3c(c1O)C(=O)c1cc(OC)cc(O)c1C3=O)[C@H](O)[C@H]2O[C@@H]1O[C@H](C)[C@H](NC)[C@H](O[C@@H]2OC[C@@H](O)[C@H](O)[C@H]2O)[C@H]1O` [Example 5, Pradimicin A Methylamide], for which the ED50 in the experiment on Candida albicans A9540 was found to be 8.8 mg/kg. Also, the MIC stood at 6.3 mg/L (≈ 7.38 µM) with T. mentagrophytes, 6.3 mg/L (≈ 7.38 µM) against C. albicans, 6.3 mg/L (≈ 7.38 µM) in the experiment on A. fumigatus and 1.6 mg/L (≈ 1.87 µM) against C. neoformans.
Take `CN[C@@H]1[C@H](O[C@@H]2OC[C@@H](O)[C@H](O)[C@H]2O)[C@@H](O)[C@H](O[C@H]2c3cc(C)c(C(=O)N[C@H](C)C(=O)NN)c(O)c3-c3c(cc4c(c3O)C(=O)c3cc(OC)cc(O)c3C4=O)[C@@H]2O)O[C@@H]1C` [Example 3, Pradimicin A Hydrazide]: the MIC in the experiment with T. mentagrophytes was 25 mg/L (≈ 29.2 µM); against C. albicans, 50 mg/L (≈ 58.5 µM); in the experiment with A. fumigatus, 25 mg/L (≈ 29.2 µM); in the experiment with C. neoformans, 3.1 mg/L (≈ 3.63 µM).
For the compound `CN[C@@H]1[C@H](O[C@@H]2OC[C@@H](O)[C@H](O)[C@H]2O)[C@@H](O)[C@H](O[C@H]2c3cc(C)c(C(=O)N[C@H](C)C(=O)N(C)C)c(O)c3-c3c(cc4c(c3O)C(=O)c3cc(OC)cc(O)c3C4=O)[C@@H]2O)O[C@@H]1C` [Example 2, Pradimicin A Dimethylamide], the ED50 in the experiment on Candida albicans A9540 worked out at 18 mg/kg. Moreover, the MIC in the experiment on T. mentagrophytes amounted to 12.5 mg/L (≈ 14.4 µM); against C. albicans, 12.5 mg/L (≈ 14.4 µM); in the experiment with A. fumigatus, 6.3 mg/L (≈ 7.26 µM); against C. neoformans, 1.6 mg/L (≈ 1.84 µM).
As to `CC(=O)Cc1cc2c(c(O)c1C(=O)O)-c1cc3c(c(O)c1CC2)C(=O)c1c(O)cc(O)cc1C3=O` [KS-619-1], the “inhibitor of calcium ion and calmodulin-dependent cyclic nucleotide phosphodiesterase” value in experiment [1] is recorded as “inhibitor”.
For the compound `CN[C@@H]1[C@H](O[C@@H]2OC[C@@H](O)[C@H](O)[C@H]2O)[C@@H](O)[C@H](O[C@H]2c3cc(C)c(C(=O)N[C@H](C)C(=O)NCC(=O)O)c(O)c3-c3c(cc4c(c3O)C(=O)c3cc(OC)cc(O)c3C4=O)[C@@H]2O)O[C@@H]1C` [Example 7, Glycyl Pradimicin A], the MIC is greater than 50 mg/L in the experiment with T. mentagrophytes, greater than 50 mg/L in the experiment with C. albicans, greater than 50 mg/L in the experiment with A. fumigatus and 12.5 mg/L (≈ 13.9 µM) in the experiment with C. neoformans.
`CN[C@@H]1[C@H](O[C@@H]2OC[C@@H](O)[C@H](O)[C@H]2O)[C@@H](O)[C@H](O[C@H]2c3cc(C)c(C(=O)N[C@H](C)C(N)=O)c(O)c3-c3c(cc4c(c3O)C(=O)c3cc(OC)cc(O)c3C4=O)[C@@H]2O)O[C@@H]1C` [Example 4, Pradimicin A Amide]: in the experiment with Candida albicans A9540, the ED50 was determined as 11 mg/kg. The MIC against T. mentagrophytes is 12.5 mg/L (≈ 14.9 µM); in the experiment on C. albicans it was 6.3 mg/L (≈ 7.5 µM); in the experiment on A. fumigatus, 6.3 mg/L (≈ 7.5 µM); in the experiment on C. neoformans it was 1.6 mg/L (≈ 1.91 µM).
As for `CN[C@@H]1[C@H](O[C@@H]2OC[C@@H](O)[C@H](O)[C@H]2O)[C@@H](O)[C@H](O[C@H]2c3cc(C)c(C(=O)N[C@H](C)C(=O)N[C@H](C)C(=O)O)c(O)c3-c3c(cc4c(c3O)C(=O)c3cc(OC)cc(O)c3C4=O)[C@@H]2O)O[C@@H]1C` [Example 1, D-alanyl Pradimicin A], the MIC against T. mentagrophytes was greater than 100 mg/L; against C. albicans, 25 mg/L (≈ 27.4 µM); in the experiment on A. fumigatus it was greater than 100 mg/L; in the experiment on C. neoformans it was 6.3 mg/L (≈ 6.91 µM).
